Article PMC6152040, “Isolation and Characterization of Aphidicolin Derivatives from Tolypocladium inflatum” (Molecules : A Journal of Synthetic Chemistry and Natural …, 2017)

Legend:
Assay type in all cases: cell-based
[1] = test system: CNE1-LMP1 stable oncoprotein LMP1 integrated nasopharyngeal carcinoma cells; assay: MTS cytotoxicity assay, CNE1-LMP1; details: Homo sapiens, MTS method, 72 h incubation
Experimental: (§1) Compounds 1, 4–8 were tested for the cytotoxicities against A549, CNE1-MP1, A375, and MCF-7 human cancer cell lines using MTS method.
(§2) Cytotoxic activity was tested against four human cancer cell lines (A549, CNE1-MP1, A375, and MCF-7) using the MTS method. For the MTS assay, the CellTiter 96® AQueous One Solution Reagent (Promega, Madison, WI, USA) was used following the manufacturer’s instruction. In a 96-well plate, each well was plated with 2–5 × 10^3 cells (It depends on the cell multiplication rate). […] The plate was incubated for 72 h at 37 °C in a humidified, 5% CO2 atmosphere. Proliferation assessed by adding 20 μL of MTS to each well in dark followed by a 90 min incubation at 37 °C. The assay plate was read at 490 nm using a microplate reader (Bio-Rad, Hercules, CA, USA). The assay was run in triplicate.

[2] = test system: HaCaT (human keratinocyte) cells; assay: MTS cytotoxicity assay, HaCaT negative control cells; details: MTS method, 72 h incubation
[3] = test system: A375 malignant melanoma cells; assay: MTS cytotoxicity assay, A375; details: Homo sapiens, A-375, MTS method, 72 h incubation
Experimental: as §1, §2

[4] = test system: A549 lung adenocarcinoma cells; assay: MTS cytotoxicity assay, A549; details: Homo sapiens, MTS method, 72 h incubation
Experimental: as §1, §2

[5] = test system: MCF-7 breast cancer cells; assay: MTS cytotoxicity assay, MCF-7; details: Homo sapiens, MCF7, MTS method, 72 h incubation
Experimental: as §1, §2

Row | Compound | IC50 [1] [µM] | IC50 [2] [µM] | IC50 [3] [µM] | IC50 [4] [µM] | IC50 [5] [µM]
1 | CC(=O)O[C@H]1C(=O)[C@@]2(C)[C@H]([C@H](OC(=O)c3ccccc3)[C@]3(O)C[C@H](OC(=O)[C@H](O)[C@@H](NC(=O)c4ccccc4)c4ccccc4)C(C)=C1C3(C)C)[C@]1(OC(C)=O)CO[C@@H]1C[C@@H]2O [paclitaxel, reference compound] | 0.0042 | 0.024 | 0.0089 | 0.03 | 0.014
2 | C[C@@]1(CO)[C@H](O)CC[C@@]2(C)[C@H]1CC[C@H]1C[C@@H]3C[C@@]12CC[C@]3(O)CO [Compound 4, aphidicolin] | 3.12 | 10.4 | 37.3 | 16.2 | 42.3
3 | COc1cc(=O)oc(C(C)[C@H](C)O)c1C (stereo partly drawn) [Compound 6, gulypyrone A] | > 100 | > 100 | > 100 | > 100 | > 100
4 | C=C[C@H]1C[C@@H](C)C[C@@H](C)[C@@H]1c1c(O)ccn(O)c1=O [Compound 7 and 8, pyridoxatin rotamers A (7) and B (8)] | 0.2 | > 47.5 | 0.1 | 0.44 | 0.17
5 | CC12COC(c3ccccc3)OC1CCC1(C)C2CCC2CC3CC21CCC3(O)CO (stereo not drawn) [Compound 1, Inflatin G] | 35.4 | 42.6 | 39.8 | 68.7 | 35.2
6 | CC(=O)OC[C@@]1(O)CC[C@]23C[C@H]1C[C@@H]2CC[C@H]1[C@](C)(CO)[C@H](O)CC[C@@]13C [Compound 5, aphidicolin-17-monoacetate] | 4 | 8 | 40.5 | 5.2 | 66.2
